Data taken from patent US9562031B1, “Phenethyldihydrobenzodioxolones and methods of use” (Sequoia Sciences, Inc., priority 2015, dated 2017).
Read-outs that look alike come from different tables or passages of the source.

Assays:
[1] = system: M14 (amelanotic melanoma) cells; test: antiproliferation assay (72 h, CELLTITER 96), M14; format: cell-based, human
Method: (§1) All of the compounds shown in Table 3-Table 8 below were prepared synthetically as described in EXAMPLE I. The compounds were tested for their ability to inhibit the proliferation of human cancer cells in vitro as described in the following paragraph. Table 3-Table 8 list the IC50 values in the M14 and NCI-H460 human cancer cell lines. IC50 is defined as the concentration of compound necessary to achieve 50% of the maximum growth inhibition.
(§2) For the antiproliferation assay, NCI-H460 (large cell lung carcinoma) or M14 (amelanotic melanoma) cells were grown in RPMI-1640 with 10% FBS supplemented with L-glutamine and HEPES. Cells were seeded into 96-well plates at 5×10^2 to 5×10^4 cells/well and allowed to adhere overnight; the medium was then removed. A stock solution of test compound in DMSO was diluted in medium to generate a series of working solutions. Aliquots (100 μl) of the working solutions were then added to the appropriate test wells to expose cells to the final concentrations of compound in a total volume of 100 μl. Seven different concentrations were tested, with 2-5 wells per concentration. Camptothecin was used as a positive control; wells containing vehicle without compound were used as negative controls. Plates were kept for 72 h in a 37° C., 5% CO2 incubator. After incubation, viable cells were detected with the CELLTITER 96 AQueous Non-Radioactive Cell Proliferation Assay (Promega), and IC50 values were determined using GraphPad Prism 5 software.

[2] = system: NCI-H460 (large cell lung carcinoma) cells; test: antiproliferation assay (72 h, CELLTITER 96), NCI-H460; format: cell-based, human
Method: as §1, §2

[3] = Homo sapiens, NCI-H460, Table 8, read-out: NCI-H460 IC50
[4] = Homo sapiens, NCI-H460, Table 5, read-out: NCI-H460 IC50
[5] = Homo sapiens, NCI-H460, Table 7, read-out: NCI-H460 IC50
[6] = Homo sapiens, NCI-H460, Table 4, read-out: NCI-H460 IC50
[7] = Homo sapiens, NCI-H460, Table 3, read-out: NCI-H460 IC50
[8] = Homo sapiens, NCI-H460, Table 6, read-out: NCI-H460 IC50
[9] = Homo sapiens, NCI-H460, stereoisomers of compound 4, Table 1, read-out: IC50 NCI-H460

## C=CC[C@H]1C[C@]2([C@@H](C)Cc3cc(F)c(OC)cc3F)O[C@H](C)OC2=CC1=O [Compound 82, (2R,6S,7aR)-6-allyl-7a-((S)-1-(2,5-difluoro-4-methoxyphenyl)propan-2-yl)-2-methyl-7,7a-dihydrobenzo[d][1,3]dioxol-5(6H)-one]
[1]; Homo sapiens, Table 8
  IC50: > 20000 nM
[2]; [3]
  IC50: 5200 nM

## C=CC[C@H]1C[C@]2([C@@H](C)Cc3ccc(N(C)C(C)=O)cc3)OCOC2=CC1=O [Compound 103, N-(4-((S)-2-((3aR,5S)-5-allyl-6-oxo-3a,4,5,6-tetrahydrobenzo[d][1,3]dioxol-3a-yl)propyl)phenyl)-N-methylacetamide]
[1]; Homo sapiens, Table 5
  IC50: > 20000 nM
[2]; [4]
  IC50: > 20000 nM

## CCS[C@H]1C[C@]2([C@@H](C)Cc3ccc(OC)cc3F)OCOC2=CC1=O [Compound 115, (6S,7aR)-6-(ethylthio)-7a-((S)-1-(2-fluoro-4-methoxyphenyl)propan-2-yl)-7,7a-dihydrobenzo[d][1,3]dioxol-5(6H)-one]
[1]; Homo sapiens, Table 7
  IC50: 11300 nM
[2]; [5]
  IC50: > 20000 nM

## COc1cc(F)c(C[C@H](C)[C@]23C[C@H](Cc4ccccc4)C(=O)C=C2OCO3)cc1O [Compound 66, (6S,7aR)-6-benzyl-7a-((S)-1-(2-fluoro-5-hydroxy-4-methoxyphenyl)propan-2-yl)-7,7a-dihydrobenzo[d][1,3]dioxol-5(6H)-one]
[1]; Homo sapiens, Table 7
  IC50: 1600 nM
[2]; [5]
  IC50: 2600 nM

## C=CC[C@H]1C[C@]2([C@@H](C)Cc3ccc(OC)c(C)c3)OCOC2=CC1=O [Compound 27, (6S,7aR)-6-allyl-7a-((S)-1-(4-methoxy-3-methylphenyl)propan-2-yl)-7,7a-dihydrobenzo[d][1,3]dioxol-5(6H)-one]
[1]; Homo sapiens, Table 4
  IC50: 410 nM
[2]; [6]
  IC50: 630 nM

## C=CC[C@H]1C[C@]2([C@@H](C)Cc3cc(-c4nnn[nH]4)c(OC)cc3F)OCOC2=CC1=O [Compound 95, (6S,7aR)-6-allyl-7a-((S)-1-(2-fluoro-4-methoxy-5-(1H-tetrazol-5-yl)phenyl)propan-2-yl)-7,7a-dihydrobenzo[d][1,3]dioxol-5(6H)-one]
[1]; Homo sapiens, Table 3
  IC50: > 20000 nM
[2]; [7]
  IC50: > 20000 nM

## C=CC[C@H]1C[C@]2([C@H](C)Cc3ccc(OC)c(F)c3F)OCOC2=CC1=O [Compound 22, (6S,7aR)-6-allyl-7a-((R)-1-(2,3-difluoro-4-methoxyphenyl)propan-2-yl)-7,7a-dihydrobenzo[d][1,3]dioxol-5(6H)-one]
[1]; Homo sapiens, Table 3
  IC50: 900 nM
[2]; [7]
  IC50: 2400 nM

## C=CC[C@H]1C[C@]2([C@@H](C)Cc3ccc(OC)c(C(=O)NC)c3)OCOC2=CC1=O [Compound 30, 5-((S)-2-((3aR,5S)-5-allyl-6-oxo-3a,4,5,6-tetrahydrobenzo[d][1,3]dioxol-3a-yl)propyl)-2-methoxy-N-methylbenzamide]
[1]; Homo sapiens, Table 4
  IC50: 1400 nM
[2]; [6]
  IC50: 1100 nM

## CC[C@H](C)[C@H]1C[C@]2([C@@H](C)Cc3cc(O)c(OC)cc3F)OCOC2=CC1=O [Compound 77, (6R,7aR)-6-((S)-sec-butyl)-7a-((S)-1-(2-fluoro-5-hydroxy-4-methoxyphenyl)propan-2-yl)-7,7a-dihydrobenzo[d][1,3]dioxol-5(6H)-one]
[1]; Homo sapiens, Table 7
  IC50: 110 nM
[2]; [5]
  IC50: 550 nM

## C=CC[C@H]1C[C@]2([C@H](C)Cc3cc(C(=O)N(C)C)c(OC)cc3F)OCOC2=CC1=O [Compound 93, 5-((R)-2-((3aR,5S)-5-allyl-6-oxo-3a,4,5,6-tetrahydrobenzo[d][1,3]dioxol-3a-yl)propyl)-4-fluoro-2-methoxy-N,N-dimethylbenzamide]
[1]; Homo sapiens, Table 3
  IC50: > 20000 nM
[2]; [7]
  IC50: > 20000 nM

## COC[C@H]1C[C@]2([C@@H](C)Cc3cc(O)c(OC)cc3F)OCOC2=CC1=O [Compound 65, (6R,7aR)-7a-((S)-1-(2-fluoro-5-hydroxy-4-methoxyphenyl)propan-2-yl)-6-(methoxymethyl)-7,7a-dihydrobenzo[d][1,3]dioxol-5(6H)-one]
[1]; Homo sapiens, Table 7
  IC50: 640 nM
[2]; [5]
  IC50: 1200 nM

## C=CC[C@H]1C[C@]2([C@@H](C)Cc3cc(F)c(N(C)C)cc3F)OCOC2=CC1=O [Compound 48, (6S,7aR)-6-allyl-7a-((S)-1-(4-(dimethylamino)-2,5-difluorophenyl)propan-2-yl)-7,7a-dihydrobenzo[d][1,3]dioxol-5(6H)-one]
[1]; Homo sapiens, Table 5
  IC50: 70 nM
[2]; [4]
  IC50: 330 nM

## C=CC[C@H]1C[C@]2(C(C)Cc3cc(C(N)=O)c(OC)cc3F)OCOC2=CC1=O (stereo partly drawn) [Compound 11, 5-(2-((3aR,5S)-5-allyl-6-oxo-3a,4,5,6-tetrahydrobenzo[d][1,3]dioxol-3a-yl)propyl)-4-fluoro-2-methoxybenzamide]
[1]; Homo sapiens, Table 3
  IC50: 4 nM
[2]; [7]
  IC50: 330 nM

## C#CC[C@H]1C[C@]2([C@@H](C)Cc3ccc(OC)cc3F)OCOC2=CC1=O [Compound 62, (6S,7aR)-7a-((S)-1-(2-fluoro-4-methoxyphenyl)propan-2-yl)-6-(prop-2-yn-1-yl)-7,7a-dihydrobenzo[d][1,3]dioxol-5(6H)-one]
[1]; Homo sapiens, Table 7
  IC50: 200 nM
[2]; [5]
  IC50: 73 nM

## C=CC[C@H]1C[C@]2([C@H](C)Cc3cc(F)c(OC)cc3F)O[C@H](C)OC2=CC1=O [Compound 89, (2R,6S,7aR)-6-allyl-7a-((R)-1-(2,5-difluoro-4-methoxyphenyl)propan-2-yl)-2-methyl-7,7a-dihydrobenzo[d][1,3]dioxol-5(6H)-one]
[1]; Homo sapiens, Table 8
  IC50: > 20000 nM
[2]; [3]
  IC50: 6900 nM

## C=C(C)C[C@H]1C[C@]2([C@@H](C)Cc3cc(O)c(OC)cc3F)OCOC2=CC1=O [Compound 80, (6S,7aR)-7a-((S)-1-(2-fluoro-5-hydroxy-4-methoxyphenyl)propan-2-yl)-6-(2-methylallyl)-7,7a-dihydrobenzo[d][1,3]dioxol-5(6H)-one]
[1]; Homo sapiens, Table 7
  IC50: 220 nM
[2]; [5]
  IC50: 370 nM

## C=CC[C@H]1C[C@]2([C@@H](C)Cc3cc(F)c(SC)cc3F)OCOC2=CC1=O [Compound 116, (6S,7aR)-6-allyl-7a-((S)-1-(2,5-difluoro-4-(methylthio)phenyl)propan-2-yl)-7,7a-dihydrobenzo[d][1,3]dioxol-5(6H)-one]
[1]; Homo sapiens, Table 5
  IC50: 120 nM
[2]; [4]
  IC50: 190 nM

## C=CC[C@H]1C[C@]2([C@H](C)Cc3ccc(OCCOC)c(F)c3)OCOC2=CC1=O [Compound 101, (6S,7aR)-6-allyl-7a-((R)-1-(3-fluoro-4-(2-methoxyethoxy)phenyl)propan-2-yl)-7,7a-dihydrobenzo[d][1,3]dioxol-5(6H)-one]
[1]; Homo sapiens, Table 5
  IC50: > 20000 nM
[2]; [4]
  IC50: > 20000 nM

## C=CC[C@H]1C[C@]2(C(C)Cc3cc(F)c(OC)c(F)c3)OCOC2=CC1=O (stereo partly drawn) [Compound 55, (6S,7aR)-6-allyl-7a-(1-(3,5-difluoro-4-methoxyphenyl)propan-2-yl)-7,7a-dihydrobenzo[d][1,3]dioxol-5(6H)-one]
[1]; Homo sapiens, Table 6
  IC50: 3300 nM
[2]; [8]
  IC50: 3800 nM

## (6S,7aR)-6-allyl-7a-((S)-1-(2-fluoro-4-methoxy-5-morpholinophenyl)propan-2-yl)-7,7a-dihydrobenzo[d][1,3]dioxol-5(6H)-one [Compound 98]
[1]; Table 4
  IC50: > 20000 nM
[2]; Table 4, read-out: NCI-H460 IC50
  IC50: > 20000 nM

## C/C=C/C[C@H]1C[C@]2([C@@H](C)Cc3ccc(OC)cc3F)OCOC2=CC1=O [Compound 67, (6S,7aR)-6-((E)-but-2-en-1-yl)-7a-((S)-1-(2-fluoro-4-methoxyphenyl)propan-2-yl)-7,7a-dihydrobenzo[d][1,3]dioxol-5(6H)-one]
[1]; Homo sapiens, Table 7
  IC50: 210 nM
[2]; [5]
  IC50: 250 nM

## C=CC[C@H]1C[C@]2([C@H](C)Cc3ccc(OC)cc3Cl)OCOC2=CC1=O [Compound 54, (6S,7aR)-6-allyl-7a-((R)-1-(2-chloro-4-methoxyphenyl)propan-2-yl)-7,7a-dihydrobenzo[d][1,3]dioxol-5(6H)-one]
[1]; Homo sapiens, Table 6
  IC50: 45 nM
[2]; [8]
  IC50: 320 nM

## C=CCC1C[C@]2([C@@H](C)Cc3cc(F)c(NC)cc3F)OCOC2=CC1=O (mixture of isomers) [Compound 45, 6-allyl-7a-(1-(2,5-difluoro-4-(methylamino)phenyl)propan-2-yl)-7,7a-dihydrobenzo[d][1,3]dioxol-5(6H)-one]
[1]; Homo sapiens, Table 5
  IC50: 98 nM
[2]; [4]
  IC50: 340 nM

## C=CC[C@H]1C[C@]2([C@@H](C)Cc3ccc(OC)cc3OC(C)=O)OCOC2=CC1=O [Compound 53, 2-((S)-2-((3aR,5S)-5-allyl-6-oxo-3a,4,5,6-tetrahydrobenzo[d][1,3]dioxol-3a-yl)propyl)-5-methoxyphenyl acetate]
[1]; Homo sapiens, Table 6
  IC50: 270 nM
[2]; [8]
  IC50: 2300 nM

## C=CC[C@@H]1C[C@]2([C@@H](C)Cc3cc(O)c(OC)cc3F)OCOC2=CC1=O [SQ 1389]
[2]; [9]
  IC50: 2500 nM

## C=CC[C@@H]1C[C@]2([C@H](C)Cc3cc(O)c(OC)cc3F)OCOC2=CC1=O [SQ 1378]
[2]; [9]
  IC50: 1900 nM

## C=CC[C@H]1C[C@]2([C@@H](C)Cc3ccc(OC)c(OC)c3F)OCOC2=CC1=O [Compound 20, (6S,7aR)-6-allyl-7a-((S)-1-(2-fluoro-3,4-dimethoxyphenyl)propan-2-yl)-7,7a-dihydrobenzo[d][1,3]dioxol-5(6H)-one]
[1]; Homo sapiens, Table 3
  IC50: 710 nM
